Here are results for two compounds from US9931401B2, “Combination comprising anti-fibroblast growth factor receptor 2 (FGFR2) antibody and a tyrosine kinase inhibitor” (Daiichi Sankyo Company, Limited, priority 2013, dated 2018).

Molecules are shown by their SMILES. Entries after “also recorded” stand apart in the source; their conditions may differ.

Experiment [1] has as its system SNU-16 cells. Nature of the experiment: Amount of antigen FGFR2 on cell surface of SNU-16 treated with low-molecular compound (QIFIKIT). Type of experiment: cell-based, human. As to conditions: 100 to 1000 nM; compared with untreated or DMSO-treated SNU-16 cells. Here is the method: This operation was repeated twice. […] The data was analyzed using Flowjo (manufactured by Tree Star Inc.).

In experiment [2] the test system is human stomach cancer cell line SNU-16. Nature of the experiment: In vivo combined use with Ki23057, SNU-16-transplanted nude mice. Also noted: species or system nude mouse. As to conditions: in combination with hFR2-14_H19/L1 20 mg/kg. The method, then: A human stomach cancer cell line SNU-16 (purchased from ATCC) was adjusted to 5×10^7 cells/mL with a 1:1 mixed solution of PBS and Matrigel (purchased from Nippon Becton Dickinson Company, Ltd.), and 0.1 mL of the cell suspension was subcutaneously transplanted to the axillary region of each nude mouse (CAnN.Cg-Foxnl^nu/CrlCrlj, female, 5 to 6 weeks old, purchased from Charles River Laboratories Japan Inc.). […] Administration of hFR2-14_H19/L1 was carried out 8, 11, 15, and 18 days after transplantation, and administration of Ki23057 was carried out 8, 9, 10, 11, 15, 16, 17, and 18 days after transplantation. The major axis (mm) and minor axis (mm) of the tumor were measured over time using an electronic digital caliper (manufactured by Mitsutoyo Corp.). The tumor volume was calculated according to the following expression: Tumor volume (mm^3)=½×[Major axis of the tumor]×[Minor axis of the tumor]×[Minor axis of the tumor]
The antitumor effect was evaluated on the basis of the percentage of tumor growth inhibition (TGI %) at 21 days after transplantation (3 days after final administration) and 32 days after transplantation (final assay day) according to the following expression: TGI (%)=(1−A/B)×100

For experiment [3] the test system is unchanged. The experiment can be described thus: In vivo combined use with AZD4547, SNU-16-transplanted nude mice. Set-up: species or system nude mouse. The method, then: A human stomach cancer cell line SNU-16 (purchased from ATCC) was adjusted to 5×10^7 cells/mL with a 1:1 mixed solution of PBS and Matrigel (purchased from Nippon Becton Dickinson Company, Ltd.), and 0.1 mL of the cell suspension was subcutaneously transplanted to the axillary region of each nude mouse (CAnN.Cg-Foxnl^nu/CrlCrlj, female, 5 to 6 weeks old, purchased from Charles River Laboratories Japan Inc.). […] The major axis (mm) and minor axis (mm) of the tumor were measured over time using an electronic digital caliper (manufactured by Mitsutoyo Corp.). The tumor volume was calculated according to the following expression: Tumor volume (mm^3)=½×[Major axis of the tumor]×[Minor axis of the tumor]×[Minor axis of the tumor]
The antitumor effect was evaluated on the basis of the percentage of tumor growth inhibition (TGI %) at 21 days after transplantation (final assay day) according to the following expression: TGI (%)=(1−A/B)×100

As to `COc1cc2c(Oc3ccc(Nc4ccc(C(C)(C)C)cc4)cc3)ccnc2cc1OCCNCCO` [Ki23057, 2-((2-((4-(4-((4-(tert-butyl)phenyl)amino)phenoxy)-6-methoxyquinolin-7-yl)oxy)ethyl)amino)ethanol], the “number of the antigen FGFR2 on cell surface” value in experiment [1] was “elevated; also recorded: increased”. Moreover, in experiment [2] (Ki23057 5 mg/kg orally), the “TGI at 21 days after transplantation” value was determined as 7% and the “TGI at 32 days after transplantation (final assay day)” value was 1%. Also, in experiment [2] (Ki23057 20 mg/kg orally), the “TGI at 21 days after transplantation” value turned out to be 29% and the “TGI at 32 days after transplantation (final assay day)” value is given as −14%.

On to `COc1cc(CCc2cc(NC(=O)c3ccc(N4C[C@@H](C)N[C@@H](C)C4)cc3)n[nH]2)cc(OC)c1` [AZD4547, N-(5-(3,5-dimethoxyphenethyl)-1H-pyrazol-3-yl)-4-((3S,5R)-3,5-dimethylpiperazin-1-yl)benzamide, reference compound], for which the “number of CR individuals among 9 mice at 21 days after transplantation” value in experiment [3] (administered alone, hFR2-14_H19/L1 20 mg/kg) is 0. Besides, the “TGI at 21 days after transplantation (final assay day)” value in experiment [3] (hFR2-14_H19/L1 20 mg/kg intraperitoneally, AZD4547 3 mg/kg orally) is reported as 24%.
